In US10316039B2, “P2X3 and/or P2X2/3 compounds and methods” (Asana Biosciences, LLC, priority 2013, dated 2019):

Molecular target: T1, P2X2/3 (Homo sapiens, UniProt P56373+Q9UBL9)
T1 sequence (Q9UBL9 1-471): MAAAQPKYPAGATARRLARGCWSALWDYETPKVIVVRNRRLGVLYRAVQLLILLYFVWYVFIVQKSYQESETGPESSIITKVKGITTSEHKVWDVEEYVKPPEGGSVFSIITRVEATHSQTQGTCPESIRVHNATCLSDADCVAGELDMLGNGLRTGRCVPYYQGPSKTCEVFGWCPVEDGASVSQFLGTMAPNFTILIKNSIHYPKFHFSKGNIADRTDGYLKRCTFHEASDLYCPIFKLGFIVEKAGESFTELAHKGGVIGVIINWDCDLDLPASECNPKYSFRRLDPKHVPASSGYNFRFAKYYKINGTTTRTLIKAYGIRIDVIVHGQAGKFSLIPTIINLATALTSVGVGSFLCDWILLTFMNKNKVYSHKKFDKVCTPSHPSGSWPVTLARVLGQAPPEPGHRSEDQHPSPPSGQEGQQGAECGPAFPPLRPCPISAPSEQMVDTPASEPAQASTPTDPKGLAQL
T1 sequence (P56373 1-397): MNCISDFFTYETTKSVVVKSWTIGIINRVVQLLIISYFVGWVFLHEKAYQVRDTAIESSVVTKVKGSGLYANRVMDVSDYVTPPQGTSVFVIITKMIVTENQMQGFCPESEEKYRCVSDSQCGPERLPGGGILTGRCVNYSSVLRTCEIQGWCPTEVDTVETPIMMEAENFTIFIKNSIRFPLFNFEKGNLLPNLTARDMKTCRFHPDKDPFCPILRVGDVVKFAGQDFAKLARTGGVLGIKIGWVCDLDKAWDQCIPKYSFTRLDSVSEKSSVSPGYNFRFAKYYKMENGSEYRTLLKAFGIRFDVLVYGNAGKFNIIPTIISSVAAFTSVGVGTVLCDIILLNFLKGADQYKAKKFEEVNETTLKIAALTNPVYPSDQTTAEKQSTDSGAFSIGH
Experiment: P2X2/3 FLIPR intracellular calcium assay
Format: cell-based
Details: agonist at EC75, species (human or rat) not given
Summary of the method: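 Stable human P2X2/3 TRex293 cells (doxycycline-induced) loaded with Calcium 4 dye; compounds, 11-point half-log series from 2 mM top stock, preincubated 15 min at RT in HBSS/HEPES pH 7.4 with 1.8 mM CaCl2. Agonist added at EC75; fluorescence change versus no-compound wells gave IC50.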

| SMILES | IC50 [nM] |
| --- | --- |
| CCc1cnnn1-c1cc(C(=O)NCc2ccc(C)nc2)cn2c(-c3ccc(C)s3)cnc12 [Example 22] | 1 to 100 |
| C[C@H](NC(=O)c1cc(-n2nncc2C(F)F)c2ncc(-c3ccc(Cl)s3)n2c1)c1nnc[nH]1 [Example 38] | 1 to 100 |
| CC[C@H](NC(=O)c1cc(-n2nncc2C(F)F)c2ncc(-c3ccc(C)s3)n2c1)c1nnc[nH]1 [Example 52] | 1 to 100 |
